Values joined by “and” are separate entries in the source; they are usually repeats but may differ in a detail not shown here. Identical values can stand only once.
tested on: Escherichia coli (E. coli—ATCC #10536); test: Automated assessment of efficacy in surfactant base (2.85% sodium cocoyl glycinate and 1.85% sodium lauroamphoacetate, pH 10.0), 15 seconds exposure; type: cell-based; conditions: 0.1% w/v, alone, model surfactant solution
Experimental: Test Methodology for Automated Assessment of Efficacy in Surfactant Base Microbiocidal Activity of Actives as Per the Invention in a Model Surfactant Medium Test Methodology for Automated Assessment of Efficacy in Surfactant Base In these examples, the efficacy of combinations of actives were tested in a surfactant cleansing formulation comprising 2.85% sodium cocoyl glycinate and 1.85% sodium lauroamphoacetate. This corresponds to a 50% in use dilution with water of a neat formulation containing 5.7% cocoyl glycinate and […] % sodium, lauroamphoacetate during hand washing. Solutions were prepared such that the concentrations of the surfactant components and test actives were 1.1× the final desired concentration in order to allow for dilution with the bacterial inoculum in the test. The solutions were manually adjusted to pH 10.0 by dropwise addition of sodium hydroxide solution, as measured with a pH meter at ambient temperature. The efficacy of the combinations of the present invention was determined against Escherichia coli (E. coli—ATCC #10536), at a concentration of approximately 1×10^8 bacteria per mL. Tests were conducted using standard microtiter plate assays using an automated liquid handling system. 270 μl of the surfactant test solution was pipetted into each well of the microtitre plate and 30 μl of the bacterial suspension was then added. Alter exactly 15 seconds of bacterial exposure, a 30 μl volume of bacterial cells was withdrawn and transferred to 270 μl of D/E quench solution. After 5 minutes in the D/E quench, the optical density (OD) was measured for each plate in turn at two specific wavelengths (450 nm and 590 nm). These provide a dual check of antimicrobial activity, as the OD450 reading is specific for the yellow colour of D/E quench when bacterial growth is observed, whereas OD590 is specific for the initial purple colour of the D/E quench which is retained if no bacterial growth is observed. After the time zero OD measurements, plates were then incubated at 37° C. overnight (16 hours) before repeating the OD measurements. Delta OD values were calculated by subtracting […]. Bacterial growth is observed as an increase in OD450 and a decrease in ΔOD590. To identify antibacterially efficacious systems (those preventing appreciable bacterial growth after incubation), the following threshold changes in OD readings have been adopted: if (1). OD450 increases by less than 0.2 absorbance unit on incubation and (2). OD590 decreases by less than 0.35 unit on incubation. Conversely, where OD450 increases by more than 0.2 AU and OD590 decreases by more than 0.35 unit after incubation, corresponding to a colour shift from purple to yellow, the test system allows bacterial growth and is not deemed efficacious. Four replicate measurements in the same plate have been made for each test system. The number of replicate wells showing either bacterial growth or no growth is also readily assessed by eye by following the colour change. Dose responses for individual components and binary mixtures of actives at a fixed concentration ratio were generated by sequential dilution of liquors with further surfactant solution to obtain a series of endpoints. […] In some selected cases, the combinations were also tested at the weight ratio 1:1.

Compound | No. of replicates showing growth (out of 4) | Δ OD 450 nm = OD450 (time = 16 hours) − OD450 (time zero), Mean | Δ OD 590 nm OD590 (time = 16 hours) − OD590 (time zero), Mean
Oc1ccccc1C1CCCC1 [2-cyclopentylphenol] | 4 | −0.57 | 0.56
Oc1ccccc1Cc1ccccc1 [2-hydroxydiphenylmethane] | 4 | −0.51 | 0.62
Cc1cc(O)cc(C)c1Cl [4-chloro-3,5-dimethylphenol] | 4 | −0.49 | 0.63
Oc1ccc(Cc2ccccc2)cc1 [4-hydroxydiphenylmethane] | 4 | −0.58 | 0.52
Oc1cccc2c1CCCC2 [5,6,7,8-tetrahydronaphthalen-1-ol] | 4 | −0.57 | 0.56

same assay, conditions: 0.125% w/v, alone, model surfactant solution

Compound | No. of replicates showing growth (out of 4) | Δ OD 450 nm = OD450 (time = 16 hours) − OD450 (time zero), Mean | Δ OD 590 nm OD590 (time = 16 hours) − OD590 (time zero), Mean
Oc1ccc(C2CCCC2)cc1 [4-cyclopentylphenol] | 4 | −0.49 | 0.62
CC(C)(C)c1ccc(O)c(O)c1 [4-tert-butylbenzene-1,2-diol] | 4 | −1.63 | 0.22

same assay, conditions: 0.2% w/v, alone, model surfactant solution

Compound | No. of replicates showing growth (out of 4) | Δ OD 450 nm = OD450 (time = 16 hours) − OD450 (time zero), Mean | Δ OD 590 nm OD590 (time = 16 hours) − OD590 (time zero), Mean
Oc1ccccc1C1CCCC1 [2-cyclopentylphenol] | 4 | −0.52 | 0.61
Oc1ccccc1Cc1ccccc1 [2-hydroxydiphenylmethane] | 4 | −0.51 | 0.63
Cc1cc(O)cc(C)c1Cl [4-chloro-3,5-dimethylphenol] | 4 | −0.50 | 0.62
Oc1ccc(C2CCCC2)cc1 [4-cyclopentylphenol] | 4 | −0.40 | 0.70
Oc1ccc(Cc2ccccc2)cc1 [4-hydroxydiphenylmethane] | 4 | −0.52 | 0.61
CC(C)(C)c1ccc(O)c(O)c1 [4-tert-butylbenzene-1,2-diol] | 4 | −1.66 | 0.17
Oc1cccc2c1CCCC2 [5,6,7,8-tetrahydronaphthalen-1-ol] | 4 | −0.47 | 0.65
C=C(C)[C@@H]1CC=C(CO)CC1 [(S)-(−) perillyl alcohol] | 4 | −1.49 | 0.29
CC1=CC(C)C(CO)C(C)C1 (centres unmarked) [Isocyclo-Geraniol] | 4 | −1.50 | 0.29

same assay, conditions: 0.4% w/v, alone, model surfactant solution

Compound | No. of replicates showing growth (out of 4) | Δ OD 450 nm = OD450 (time = 16 hours) − OD450 (time zero), Mean | Δ OD 590 nm OD590 (time = 16 hours) − OD590 (time zero), Mean
CC1=CC(C)C(CO)C(C)C1 (centres unmarked) [Isocyclo-Geraniol] | 0 | −0.06 | 0.09

same assay, conditions: 0.5% w/v, alone, model surfactant solution

Compound | No. of replicates showing growth (out of 4) | Δ OD 450 nm = OD450 (time = 16 hours) − OD450 (time zero), Mean | Δ OD 590 nm OD590 (time = 16 hours) − OD590 (time zero), Mean
C=C(C)[C@@H]1CC=C(CO)CC1 [(S)-(−) perillyl alcohol] | 0 | −0.04 | 0.07

same assay, conditions: […] w/v, alone, model surfactant solution

Compound | No. of replicates showing growth (out of 4) | Δ OD 450 nm = OD450 (time = 16 hours) − OD450 (time zero), Mean | Δ OD 590 nm OD590 (time = 16 hours) − OD590 (time zero), Mean
Oc1ccccc1C1CCCC1 [2-cyclopentylphenol] | 4 | −0.56 | 0.54
Oc1ccccc1Cc1ccccc1 [2-hydroxydiphenylmethane] | 4 | −0.49 | 0.64
Cc1cc(O)cc(C)c1Cl [4-chloro-3,5-dimethylphenol] | 4 | −0.47 | 0.63
Oc1ccc(C2CCCC2)cc1 [4-cyclopentylphenol] | 4 | −0.45 | 0.65
Oc1ccc(Cc2ccccc2)cc1 [4-hydroxydiphenylmethane] | 4 | −0.55 | 0.54
CC(C)(C)c1ccc(O)c(O)c1 [4-tert-butylbenzene-1,2-diol] | 4 | −1.63 | 0.20
Oc1cccc2c1CCCC2 [5,6,7,8-tetrahydronaphthalen-1-ol] | 4 | −0.52 | 0.58
CC1=CC(C)C(CO)C(C)C1 (centres unmarked) [Isocyclo-Geraniol] | 4 | – | –

same assay, conditions: in 2.85% sodium cocoyl glycinate + 1.85% sodium lauroamphoacetate solution at pH 10; E. coli

Compound | MBC (minimum biocidal concentration) [% w/v]
CC1=CC(C)C(CO)C(C)C1 (centres unmarked) [2,4,6-trimethyl-3-cyclohexene-1-methanol] | 0.4
Oc1ccccc1C1CCCC1 [2-cyclopentylphenol] | >0.2
Oc1ccccc1Cc1ccccc1 [2-hydroxydiphenylmethane] | >0.2
Cc1cc(O)c(C(C)C)cc1Cl [4-chloro-2-isopropyl-5-methylphenol, reference compound] | >0.2
Cc1cc(O)cc(C)c1Cl [4-chloro-3,5-dimethylphenol] | >0.2
Oc1ccc(C2CCCC2)cc1 [4-cyclopentylphenol] | >0.2
Oc1ccc(Cc2ccccc2)cc1 [4-hydroxydiphenylmethane] | >0.2
CC(C)(C)c1ccc(O)c(O)c1 [4-tert-butylbenzene-1,2-diol] | >0.2
Oc1cccc2c1CCCC2 [5,6,7,8-tetrahydronaphthalen-1-ol] | >0.2

tested on: Escherichia coli (E. coli—ATCC #10536); test: Synergy test: high resolution MBC microtiter plate assay, phosphate buffer containing 35% dipropylene glycol, 15 seconds contact; type: cell-based; conditions: E. coli 10536; at Qa and Qb; less than one = synergy
Description: The concentrations and ratios may also vary under different test conditions or with different test methods.
One measure of synergy is the industrially accepted method described by Kull, F. C.; Eisman, P. C.; Sylwestrowicz, H. D, and Mayer, R. L., in Applied Microbiology 9:538-541 (1961), using the ratio determined by the formula: […]=Synergy Index (“SI”) wherein; QA=concentration of compound A (first component) in percent, acting alone, which produced an end point (MBC of Compound A). Qa=concentration of compound A in percent, in the mixture, which produced an end point. QB=concentration of compound B (second component) in percent, acting alone, which, produced an end point (MBC of Compound B). Qb=concentration of compound B in percent, in the mixture, which produced an end point.
When the sum of Qa/QA and Qb/QB is greater than one, antagonism is indicated. […] The lower the SI, the greater is the synergy shown by that particular mixture. The minimum biocidal concentration (MBC) of a microbicide is the lowest concentration tested under a specific set of conditions that provides complete kill of the tested microorganisms.
Synergy tests were conducted using standard microliter plate assays with phosphate buffer containing 35% dipropylene glycol (DPG). In this method, a wide range of combinations of chemicals was tested by conducting high resolution MBC assays of Component (A) in the presence of various concentrations of Component (B). High resolution MBCs were determined by adding varying amounts of microbicide to one column of a microliter plate and doing subsequent […] dilutions using an automated liquid handling, system to obtain a series of closely spaced endpoints. The MBC plate was inoculated one column at a time with the test microorganism. An aliquot of the inoculated well was transferred at 15 seconds to a plate containing a neutralizing agent (D/E Neutralizing Broth), mixed and held for 5 minutes before being transferred to a growth plate containing trypticase soy broth (TSB). The TSB plate was incubated at 37° C. and read for the presence/absence of growth at 24 hours. The lowest level tested that provided complete kill (as evidenced by no growth in the microtitre plate) of the test organisms in 15 seconds is the minimum biocidal concentration (MBC).
The synergy of the combinations of the present invention was determined against a bacterium, Escherichia coli (E. coli—ATCC #10536), at a concentration of approximately 1×10^8 it bacteria per mL. This microorganism is representative of natural contaminants in many consumer and industrial applications.

Compound | SI (Synergy Index)
CC1=CC(C)C(CO)C(C)C1 (centres unmarked) [2,4,6-trimethyl-3-cyclohexene-1-methanol] | 1.00
CC1=CCC(C(C)CO)CC1 (centres unmarked) [2-(4-methylcyclohex-3-enyl)propan-1-ol] | 1.00
Oc1ccccc1C1CCCC1 [2-cyclopentylphenol] | 1.00
Oc1ccccc1Cc1ccccc1 [2-hydroxydiphenylmethane] | 1.00
Cc1cc(O)cc(C)c1Cl [4-chloro-3,5-dimethylphenol] | 1.00
Oc1ccc(C2CCCC2)cc1 [4-cyclopentylphenol] | 1.00
Oc1ccc(Cc2ccccc2)cc1 [4-hydroxydiphenylmethane] | 1.00
CC(C)(C)c1ccc(O)c(O)c1 [4-tert-butylbenzene-1,2-diol] | 1.00
Oc1cccc2c1CCCC2 [5,6,7,8-tetrahydronaphthalen-1-ol] | 1.00

same assay, conditions: E. coli 10536; complete kill in 15 seconds; component alone

Compound | MBC of the component acting alone (QA / QB; Qa or Qb where the other component is 0)
CC1=CC(C)C(CO)C(C)C1 (centres unmarked) [2,4,6-trimethyl-3-cyclohexene-1-methanol] | 0.6 weight % and 1 weight % and 0.8 weight % and 0.3 weight %
CC1=CCC(C(C)CO)CC1 (centres unmarked) [2-(4-methylcyclohex-3-enyl)propan-1-ol] | 0.3 weight % and 0.25 weight %
Oc1ccccc1C1CCCC1 [2-cyclopentylphenol] | 0.3 weight % and 0.5 weight %
Oc1ccccc1Cc1ccccc1 [2-hydroxydiphenylmethane] | 0.8 weight % and 0.5 weight % and 0.6 weight %
Cc1cc(O)cc(C)c1Cl [4-chloro-3,5-dimethylphenol] | 0.6 weight % and 1.0 weight % and 0.5 weight %
Oc1ccc(C2CCCC2)cc1 [4-cyclopentylphenol] | 0.3 weight % and 0.5 weight % and 0.2 weight %
Oc1ccc(Cc2ccccc2)cc1 [4-hydroxydiphenylmethane] | 0.8 weight % and 0.6 weight %
CC(C)(C)c1ccc(O)c(O)c1 [4-tert-butylbenzene-1,2-diol] | 1.00 weight % and 1.0 weight %
Oc1cccc2c1CCCC2 [5,6,7,8-tetrahydronaphthalen-1-ol] | 0.6 weight %

same assay, conditions: E. coli 10536; complete kill in 15 seconds; component alone; listed as 2-(4-methylcylohex-3-enyl)propan-1-ol

Compound | MBC of the component acting alone (QA / QB; Qa or Qb where the other component is 0) [weight %]
CC1=CCC(C(C)CO)CC1 (centres unmarked) [2-(4-methylcyclohex-3-enyl)propan-1-ol] | 0.25

Source: patent US9320271B2, “Microbial composition” (Rohm and Haas Company, priority 2011, dated 2016)
